Laboratory results taken from US12643887B2, “Heterocyclic derivatives with cardiomyocyte proliferation activity for treatment of heart diseases” (Tongji University, priority 2019, dated 2026).
Where two headings read alike, the source gives them in different places.

Columns and labels:
human CIT = molecular target: T1, human CIT (Homo sapiens, UniProt O14578); assay: CIT enzyme assay (ADP-Glo); format: biochemical
T1 construct: Recombinant human CIT (1-499); GST (N); purchased SignalChem C52-11G; host or cells: Sf9 insect cells
Experimental: The ability of compounds to inhibit human CIT kinase activities was determined using a commercially available ADP-Glo™ Kinase Assay kit (Promega, Cat #V9102) according to the manufacturer's protocol.
(§1) Recombinant human CIT (1-499) (expressed in Sf9 insect cells with an N-terminal GST tag) was purchased from SignalChem (Cat #C52-11G). Recombinant full length human MBP (expressed in E. Coli cells with an N-terminal GST tag) was purchased from SignalChem (Cat #M42-54G). This assay, run in a 384-well plate format, is a generic method for measuring kinase activities using an ADP-Glo Kinase Assay Kit. The basic assay procedure involves two steps: (1) Enzymatic step: inhibitors are incubated with the kinase and then ATP (included in the ADP-Glo Kinase Assay Kit) and the MBP protein are added to start the enzymatic reaction; (2) Detection step: after the kinase reaction, first ADP-Glo™ Reagent is added to terminate the kinase reaction and deplete the remaining ATP. Second, the Kinase Detection Reagent is added to simultaneously convert ADP to ATP and allow the newly synthesized ATP to be measured using a luciferase/luciferin reaction. The light generated is measured using a luminometer.
(§2) Briefly, CIT (20 nM) in the enzymatic buffer solutions (40 mM Tris, pH 7.5, 20 mM MgCl2, 0.1 mg/ml BSA, 50 μM DTT) were mixed with various concentrations of inhibitors (dissolved in 100% DMSO). These solutions were incubated for 30 minutes at 25° C., and subsequently a mixture of substrate peptide and ATP was added with the final peptide and ATP concentrations at 0.05 mg/ml and 5 μM, respectively. The final reaction mixture of enzyme-substrate-ATP-compound was incubated for 90 minutes at 25° C.
(§3) Afterwards ADP-Glo™ Reagent was added and the mixture was incubated at 25° C. for 60 minutes. Then Kinase Detection Reagent was added, and the final mixture was incubated at 25° C. for 60 minutes. The luminescence signal of the final solution was measured on an Envision instrument (PerkinElmer). The percent (%) inhibition at each concentration of a compound is calculated relative to the luminescence signal in the Max and Min control wells contained within each assay plate. […] The concentrations and percent inhibition values for a test compound are plotted and the concentration of the compound required to achieve 50% inhibition (IC50) is determined with a four-parameter logistic dose response equation.

human CK2a2 (CSNK2a2) = molecular target: T2, human CK2a2 (CSNK2a2) (Homo sapiens, UniProt P19784); assay: CK2a2 (CSNK2a2) enzyme assay (ADP-Glo); format: biochemical
T2 construct: Recombinant human CK2a2 (CSNK2a2) (full length); GST (N); purchased SignalChem C71-10G; host or cells: Sf9 insect cells
Experimental: 8. CK2a2 (CSNK2a2) Enzyme Assay
The ability of compounds to inhibit human CK2a2 (CSNK2a2) kinase activities was determined using a commercially available ADP-Glo™ Kinase Assay kit (Promega, Cat #V9102) according to the manufacturer's protocol.
as §1, with “CK2a2 (CSNK2a2) (full length)” for “CIT (1-499)”, “#C71-10G). CK2 substrate (sequence: […])” for “#C52-11G). Recombinant full length human MBP (expressed in E. Coli cells with an N-terminal GST tag)”, “#C08-58).” for “#M42-54G).”
as §2, with “Briefly, CK2a2 (CSNK2a2) (7” for “Briefly, CIT (20”, “at 0.04” for “at 0.05”, “and 15” for “and 5”
as §3

[1] = ADP-Glo, ATP 5 μM, read-out: CIT IC50
[2] = ADP-Glo, ATP 15 μM, read-out: CK2 alpha 2 IC50

T2 sequence (P19784 whole entry): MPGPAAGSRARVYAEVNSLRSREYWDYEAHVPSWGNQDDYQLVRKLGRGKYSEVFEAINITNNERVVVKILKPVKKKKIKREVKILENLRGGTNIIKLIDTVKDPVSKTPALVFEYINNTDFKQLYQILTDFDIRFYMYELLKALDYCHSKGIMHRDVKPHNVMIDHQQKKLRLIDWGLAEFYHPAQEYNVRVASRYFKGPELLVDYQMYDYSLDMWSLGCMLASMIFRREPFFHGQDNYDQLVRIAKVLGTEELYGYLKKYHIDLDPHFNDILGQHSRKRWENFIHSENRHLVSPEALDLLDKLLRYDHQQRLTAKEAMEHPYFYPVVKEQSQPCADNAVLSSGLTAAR
T1 sequence (O14578 1-499): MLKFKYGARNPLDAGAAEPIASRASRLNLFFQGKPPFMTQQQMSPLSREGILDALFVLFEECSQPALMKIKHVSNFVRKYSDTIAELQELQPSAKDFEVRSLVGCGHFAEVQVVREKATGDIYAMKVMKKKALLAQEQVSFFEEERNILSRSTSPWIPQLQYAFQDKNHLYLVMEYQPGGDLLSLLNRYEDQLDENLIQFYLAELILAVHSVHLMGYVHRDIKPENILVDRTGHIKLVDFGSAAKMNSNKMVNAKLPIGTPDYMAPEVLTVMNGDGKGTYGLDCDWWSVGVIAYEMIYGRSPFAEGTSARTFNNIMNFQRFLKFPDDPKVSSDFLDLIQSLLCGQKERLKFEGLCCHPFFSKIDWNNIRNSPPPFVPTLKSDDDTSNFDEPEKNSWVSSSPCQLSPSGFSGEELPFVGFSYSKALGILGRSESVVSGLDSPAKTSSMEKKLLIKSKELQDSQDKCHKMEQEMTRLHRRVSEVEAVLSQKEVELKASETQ

SMILES	IC50 (human CIT)	IC50 (human CK2a2 (CSNK2a2))	IC50 (human CIT; [1])	IC50 (human CK2a2 (CSNK2a2); [2])
CC(=O)N(C1=N/C(=C\c2ccc3c(c2)OCO3)C(=O)N1)c1ccccc1 [Example 5, (Z)—N-(4-(benzo[d][1,3]dioxol-5-ylmethylene)-5-oxo-4,5-dihydro-1H-imidazol-2-yl)-N-phenylacetamide]	> 10000 nM	< 100 nM	–	–
Cc1nc2ccc(NC3=N/C(=C\c4ccc5ncsc5c4)C(=O)N3)cc2s1 [Example 90, (Z)-5-(benzo[d]thiazol-6-ylmethylene)-2-((2-methylbenzo[d]thiazol-6-yl)amino)-3,5-dihydro-4H-imidazol-4-one]	–	–	> 10000 nM	< 100 nM
Nc1ccc(NC2=N/C(=C\c3ccc4ncsc4c3)C(=O)N2)cc1 [Example 98, (Z)-2-((4-aminophenyl)amino)-5-(benzo[d]thiazol-6-ylmethylene)-3,5-dihydro-4H-imidazol-4-one]	–	–	100 to 1000 nM	< 100 nM
CCN(C1=N/C(=C\c2ccc3c(c2)OCO3)C(=O)N1)c1ccccc1 [Example 4, (Z)-5-(benzo[d][1,3]dioxol-5-ylmethylene)-2-(ethyl(phenyl)amino)-3,5-dihydro-4H-imidazol-4-one]	–	–	> 10000 nM	100 to 1000 nM
